| Structure (SMILES) | melting point |
| --- | --- |
| O=C1c2cccc([N+](=O)[O-])c2C(=O)N1CCCCN1C(=O)c2cccc([N+](=O)[O-])c2C1=O | 245 °C |
| CCCOC(=O)C(=O)Nc1ccccn1 | 56 to 59 °C |
| Cc1ccccc1-c1nn(C(C)C(=O)N(C)C)cc1Cl (stereo not given) | 69 to 71.5 °C |
| COc1ccc(Cn2c(=O)c3ccccc3n(CCCCl)c2=O)cc1 | 124 to 125 °C |
| CC(C)C[C@H](NC(=O)Nc1n[nH]c(=S)s1)C(=O)NCc1ccccc1 | 206 to 208 °C |
| CCCc1cc(O)nc(C(Cl)(Cl)Cl)n1 | 107 to 110 °C |
| CC(C)NC(=O)OCC(=O)c1ccc(-c2ccccc2)cc1 | 133 to 134 °C |
| CCCCOc1nc(N)c2[nH]c(=O)n(CCCCN(CCN3CCOCC3)Cc3cccc(CC(=O)OC)c3)c2n1 | 189 to 190 °C |
| COc1cccc(Oc2nc(N)n3nc(-c4ccco4)nc3n2)c1 | 226 to 227 °C |
| COC(=O)[C@@H]1CCCN1c1ccc(C)c([N+](=O)[O-])c1O | 111 to 114 °C |
| CCCc1cc2nn(Cc3ccc(NC(=O)c4ccccc4S(=O)(=O)O)cc3)c(=O)n2c(C)n1 | 283 to 286 °C |
| CN(C)CCc1cccc(N2C(=O)N(c3c(Cl)cccc3Cl)Cc3cnc(Nc4ccccc4)nc32)c1 | 101 to 105 °C |
| Cn1ncc(C(=O)N2CCCC2)c1C(=O)Nc1ccc2nc(-c3cccnc3)nn2c1 | 251 °C |
| COC(=O)c1ccc2[nH]cc(C3=CCN(C)CC3)c2c1 | 202 to 204 °C |
| CCCCN(c1c([O-])[c+](N(CCCC)C2CC(C)(C)NC(C)(C)C2)[c+]1[O-])C1CC(C)(C)NC(C)(C)C1 | 151 to 152 °C |
| Fc1cc(F)c(F)c(-c2c(Cl)nc3ncnn3c2Cl)c1 | 191 °C |
| COc1ccc2c(c1)CC(=O)c1cc(C(C)C(N)=O)ccc1S2 (stereo not given) | 186 to 188 °C |
| Cn1cnc(=O)[nH]c1=O | 213 to 214 °C |
| COC(C)(C)CNCc1cnc2c(C)c(NC(=O)c3ccc(OCC4CCOC4)cc3)ccc2c1 (stereo not given) | 137 °C |
| ClCc1nc(-c2ccccc2)c(-c2ccccc2)o1 | 43 to 45 °C |
| Cc1nc(N2CCN(Cc3ccc(F)cc3)C2=O)sc1C(=O)NCc1cccnn1 | 222 to 225 °C |
| CC(C)OC(=O)c1cc(-n2c(=O)c3c(n(C)c2=O)CCCC3)ccc1Cl | 136 to 138 °C |

| Structure (SMILES) | melting point |
| --- | --- |
| Nc1nc(NCCO)nc(N2CCOCC2)n1 | 159 to 161 °C |
| Nc1ccccc1NC(=O)c1ccc(CNC(=O)OCc2cccnc2)cc1 | 159 to 160 °C |
| C=C(c1ccc(-c2nnc(N)s2)cc1)C(O)(Cn1cncn1)c1ccc(F)cc1F (stereo not given) | 118 to 121 °C |
| CCCN(CCC)Cc1nc(-c2ncn3c2CN(C)C(=O)c2sccc2-3)no1 | 128 to 130 °C |
| CC1(C)Oc2ccc(C#N)cc2[C@@H](NC(=NC#N)Oc2ccccc2)[C@@H]1O (relative stereo) | 186 to 188 °C |
| O=C1CCN(C2c3ccccc3C=Cc3ccccc32)CC1C(c1ccccc1)c1ccccc1 (stereo not given) | 175 to 178 °C |
| CC(C)c1ccc(N(Cc2cnn(Cc3ccccc3)c2)C(=O)C2CCCc3c(O)cccc32)cc1 (stereo not given) | 130 °C |
| c1ccc2c(c1)Cn1cccc1C1(CCNCC1)O2 | 168 to 170 °C |
| NN=C1CCCCC1n1nc(-c2c(-c3ccccc3)nn3ccccc23)ccc1=O (stereo not given) | 161 to 162 °C |
| COc1ccc(OCC(O)CN2CCC(C3Oc4ccccc4Cn4cccc43)CC2)cc1 (stereo not given) | 95 to 120 °C |
| O=C(OC[C@@H](O)[C@@H]1CC(c2ccc(-c3ccc(N4C[C@H](Cn5ccnn5)OC4=O)cc3F)cn2)=NO1)c1cccnc1 | 210 °C |
| COc1cc(C)cc(OC)c1N(CC1CCCCC1)C(=O)CNC(=O)c1cc2ccccc2n1CCC(=O)NC1C2CC3CC(C2)CC1C3 (stereo not given) | 96 °C |
| O=C(NCCCCCCCNC(=O)c1ccc(OC(Cl)(Cl)Cl)cc1)c1ccc(OC(Cl)(Cl)Cl)cc1 | 152 to 153 °C |
| CC1(C)CC(N(c2nc(F)nc(N(C3CC(C)(C)N(O)C(C)(C)C3)C3CC(C)(C)N(O)C(C)(C)C3)n2)C2CC(C)(C)N(O)C(C)(C)C2)CC(C)(C)N1O | 254 to 257 °C |
| Cc1cccc(C(=O)C2=C(O)C(=O)N(c3ccc(C)nn3)C2c2ccc(C(C)C)cc2)c1 (stereo not given) | 245 to 250 °C |
| O=C(Nc1cccnc1Cl)c1ccco1 | 102 °C |
| Cc1nnc2n1-c1sc(C#CCN3C(=O)c4ccccc4S3(=O)=O)cc1C(c1ccccc1Cl)=NC2 | 232 to 234 °C |
| CCOC(=O)c1cnoc1-c1ccc(Br)cc1 | 47 to 48 °C |
| CC(C)(C)OC(=O)N1CCC(c2cc(F)c3oc(-c4ccc(S(C)(=O)=O)cc4F)nc3c2)CC1 | 188 to 192 °C |
| COc1cccc(C(CC(N)=O)CC(N)=O)c1 | 161 to 162 °C |
| CC(C)(C)C(NC(=O)c1cc(Cl)cc(Cl)c1)Nc1c(Nc2cncc(C(F)(F)F)c2)c(=O)c1=O (stereo not given) | 233 to 234 °C |

The next lines start with the values.

| melting point | Structure (SMILES) |
| --- | --- |
| 150 to 152 °C | Cc1cccc(OCC2=NCCN2C(=O)Nc2ccccc2)c1C |
| 146 to 148 °C | Cc1ccc2c(c1)N=C(N1CCN(C)CC1)c1cc(C)sc1O2 |
| 160 to 161 °C | O=C1NC(=O)C(Cc2ccc(OCCON=Cc3cncc(-c4ccccc4)c3)cc2)S1 (stereo not given) |
| 42.1 °C | CCCCCCCCc1ccc(N=Nc2ccc(OC(=O)CCOCCCCCCC)cc2)cc1 |
| 101 °C | CC(C)N(C(=S)Nc1ccccc1[N+](=O)[O-])C1CCN(CCc2ccccc2)CC1 |
| 192 to 193 °C | COC(=O)Nc1cc(C(C)(C)C)cc(NC(=O)Nc2ccc(-c3ccc(CN4CCOCC4)nc3)c3ccccc23)c1OC |
| 229 to 230 °C | Nc1nc(N)c(CCCN(C(=O)C(F)(F)F)c2ccc(C(=O)O)cc2)c(=O)[nH]1 |
| 196 °C | CCOC(=O)C(C(C)=O)C1NC(=O)c2sccc2-n2cccc21 (stereo not given) |
| 131 to 132 °C | CC(=O)c1c(C)nc(C)nc1NCc1ccc(-c2ccccc2-c2nnnn2C(C)(C)C)cc1 |
| 113 °C | COc1ccc(CSC(C)(C)C(O)(CO)c2ccc(F)cc2F)cc1 (stereo not given) |
| 140 to 142 °C | CSc1cccc(Cc2sc(NC(C)=O)nc2CO)c1 |
| 218 to 220 °C | Cc1cc(Cl)nnc1-c1ccc(C#N)cc1 |
| 108 to 110 °C | CC(C)(O)CCOc1c(-c2ccc(S(C)(=O)=O)cc2)cnn(-c2ccc(F)c(Cl)c2)c1=O |
| 165 to 166 °C | NC(=O)Cc1ccc2c(c1)CCc1cccnc1S2 |
| 52 to 53 °C | COc1ccc(S(=O)(=O)OCC(=O)CC(C)C2CCCCC2)cc1 (stereo not given) |
| 68 to 70 °C | CCCCCCCCCCCC1OC1CO (stereo not given) |
| 89 to 91 °C | CCOC(=O)[C@H](Cc1cccc(-c2ccc3ccccc3c2)c1)NC(=O)C(F)(F)F |
| 159 to 161 °C | CC(C)(S)[C@@H]1C[C@H](CS)C(=O)N1 (relative stereo) |
| 145 to 147 °C | CCOc1ccc(C(O)CN2CCOCC2)cc1-c1nc2c(C)cccc2c(=O)[nH]1 (stereo not given) |
| 158 to 161 °C | COc1ccc2c(c1)CCCC2N(CC(=O)O)C(=O)C(C)CSC(C)=O (stereo not given) |
| 151 to 154 °C | Cn1ccnc1SCC(=O)Nc1ccc(-c2ccccc2)cc1 |
| 122 to 123 °C | O=c1oc(-c2ccc(CCc3ccccc3)cc2)cc(O)c1SCCc1ccccc1 |
| 253 to 255 °C | COc1cc(-c2cc(=O)c3cccnc3o2)ccc1O |
| 172 to 173 °C | Cc1ccccc1CC(=NC#N)NC(NC(=O)Cc1ccc2ncccc2c1)C(C)(C)C (stereo not given) |
| 166 to 170 °C | COc1ccc(-c2sc3cc(OC)ccc3c2C(=O)O)cc1 |
| 146 to 149 °C | COC(=O)NCCc1ccc(C(=O)OC)c(S(N)(=O)=O)c1 |

| melting point | Structure (SMILES) |
| --- | --- |
| 47 to 49 °C | CCOC(=O)CCc1cc(OCOC)nn1Cc1ccc(Cl)cc1Cl |
| 77 to 80 °C | CC(S(=O)(=O)c1ccc(OC(F)(F)F)cc1)S(=O)(=O)C(F)(F)F (stereo not given) |
| 80 to 81 °C | Fc1cccc2c1OC1CN(Cc3ccccc3)CC1O2 (stereo not given) |
| 135 to 137 °C | COc1ccc(CN2CCC(N=C(NC#N)N3CCc4ccccc4C3)CC2)cc1 |
| > 360 °C | Nc1ccc2c3c(cccc13)C(=O)N(O)C2=O |
| 73 °C | Cc1cc(C#CC=O)nc(Oc2cc(C(F)(F)F)nn2C)c1 |
| 210 to 212 °C | Cn1ncc(C(=O)N2CCCC2)c1C(=O)Nc1ccn2nc(N3CCOCC3)nc2c1 |
| 163 °C | NC[C@@H]1CNc2cccc(-c3ccc(Cl)cc3Cl)c2O1 |
| 145 to 147 °C | COc1ccc(C(=O)Nc2ccc(Cl)c(Cl)c2)cc1NCc1cccnc1 |
| 75.5 to 76.5 °C | COC(=O)C(C)(C)CCCOc1cc(C)c(OCc2ccccc2)cc1C |
| 189 to 190 °C | CNC(=NC#N)NCCSCc1nccc(N)n1 |
| 82.4 to 83 °C | CCOC(=O)c1ccc(S(=O)(=O)C(C)(C)C)cc1Cl |
| 106 to 108 °C | O=C(Nc1ccc(Oc2ccnc(N3CCC(O)CC3)n2)c2ccccc12)c1cc(F)cc(N2CCOCC2)c1 |
| 165 °C | CCS(=O)c1ccccc1S(=O)(=O)NC(=O)Nc1nc(OC)nc(OC)n1 (stereo not given) |
| 176 to 178 °C | Cc1nc(-n2cc(C(=O)c3ccccc3)nn2)sc1C(=O)NCc1ccccc1 |
| 81 to 82 °C | COc1cccc(NC(C)=O)c1 |
| 188 to 189 °C | Cc1cc(OCC(=O)Nc2cccc(C(=O)O)c2)ccc1C(C)C |
| > 270 °C | CCCC1=C(C#N)C(c2ccccc2Cl)c2c(n[nH]c2C(C)C)N1 (stereo not given) |
| 203 to 205 °C | O=C(O)c1ccc(C(=O)N2CCN(C(=O)N3CCOCC3)CC2)cc1 |
| 162 to 163 °C | CC1=CC(OC(=O)c2ccc(N(C)C)cc2)C(O)C(C)(C)CC1=O (stereo not given) |
| 72 to 73 °C | CC(C)[C@H](OCc1ccccc1F)[C@H]1[C@H]([N+](=O)[O-])[C@H](c2ccccc2)N[C@@H]1C(=O)NCC(=O)O |
| 83 °C | Nc1cc(=O)n(Cc2ccc(C(F)(F)F)c(Cl)c2)[nH]1 |
| 144 to 145 °C | CCOC(=O)NC(=S)CNc1ccc(C(=O)OC)c(S(=O)(=O)NC(=O)Nc2nc(OC)cc(OC)n2)c1 |
| 130 to 132 °C | Clc1ncc(-c2ccccc2)cn1 |
| 224 to 226 °C | CN1CC(=O)N2[C@H](c3ccc(O)c(O)c3)c3[nH]c4ccccc4c3C[C@@H]2C1=O |
| 257 to 260 °C | CC1(C)CN2C(=O)c3ncccc3C(O)(c3ccc(Cl)cc3)C2=N1 (stereo not given) |

— a melting point compilation (Tetko et al.; mined from patent text by program, amines drawn as free bases though some values may be those of a salt)
